Results: patent publication US20240116985A1, “STAPLED PEPTIDES AND METHODS THEREOF” (priority 2020, published 2024)
≈ marks a conversion by molar mass, not a printed value. Like-named read-outs stand apart in the source and are kept apart here.

Tests used:
[1] = target: T1, full-length beta-Catenin (Uniprot ID P35222) (Homo sapiens, UniProt P35222); assay: Fluorescence polarization IC50 (beta-catenin / 5FAM-TCF4 10-53 competition); format: binding
T1 construct: 10 nM full-length beta-Catenin (Uniprot ID P35222)
T1 sequence (P35222 1-781): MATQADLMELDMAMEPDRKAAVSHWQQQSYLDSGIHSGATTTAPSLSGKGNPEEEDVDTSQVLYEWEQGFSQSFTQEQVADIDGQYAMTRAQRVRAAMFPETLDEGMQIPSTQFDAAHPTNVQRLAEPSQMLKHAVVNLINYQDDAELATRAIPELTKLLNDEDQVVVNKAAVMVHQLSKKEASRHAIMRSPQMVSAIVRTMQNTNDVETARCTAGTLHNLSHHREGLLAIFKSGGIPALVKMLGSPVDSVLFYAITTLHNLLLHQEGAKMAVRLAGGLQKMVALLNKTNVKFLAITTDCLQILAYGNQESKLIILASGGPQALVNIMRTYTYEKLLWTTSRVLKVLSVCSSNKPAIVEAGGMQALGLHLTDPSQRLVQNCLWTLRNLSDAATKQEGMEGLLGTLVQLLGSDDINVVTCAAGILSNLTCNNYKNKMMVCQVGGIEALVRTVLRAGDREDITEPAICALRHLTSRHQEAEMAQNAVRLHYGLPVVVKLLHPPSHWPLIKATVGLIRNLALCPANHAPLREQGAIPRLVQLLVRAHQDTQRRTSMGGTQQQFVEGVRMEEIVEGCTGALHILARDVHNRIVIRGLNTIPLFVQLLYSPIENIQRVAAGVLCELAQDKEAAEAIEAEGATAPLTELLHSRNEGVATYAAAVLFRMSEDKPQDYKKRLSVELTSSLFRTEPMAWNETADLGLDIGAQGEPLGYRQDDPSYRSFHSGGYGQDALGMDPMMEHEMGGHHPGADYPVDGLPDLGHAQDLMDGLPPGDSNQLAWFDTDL

Solubility in PBS = format: physicochemical
Procedure, shortened: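 Steps: ultracentrifuge the peptide PBS solution, inject the supernatant on HPLC, inject a 50 μM peptide DMSO solution as reference, then calculate solubility as area ratio (PBS/DMSO) × 50 uM.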

CHI Log D procedure = format: physicochemical; details: for CHI Log D: pH 7.4
[2] = fluorescence polarization, read-out: beta-Catenin FP IC50

| Compound | IC50 [1, 2] [µM] | IC50 ([1]; read-out: FP EC50) [µM] | Solubility (Solubility in PBS) [µM] | CHI Log D (CHI Log D procedure) | chromatographic logD (CHI Log D procedure; pH 7.4, CHI Log D) |
| --- | --- | --- | --- | --- | --- |
| CC(=O)N1CCC[C@]12CC=CCCCC1(CCCC=CCCCCCC[C@@](C)(C(=O)N[C@@H](Cc3ccsc3)C(=O)N[C@@H](Cc3csc4ccccc34)C(=O)N[C@@H](CCC(N)=O)C(N)=O)NC(=O)[C@H](CC(N)=O)NC(=O)[C@H](Cc3ccccc3)NC(=O)[C@H](C)NC(=O)[C@H](C)NC(=O)[C@H](CN(CC(=O)O)CC(F)(F)F)NC(=O)[C@H](CC(=O)O)NC1=O)NC(=O)[C@H](CC1CCCCC1)NC(=O)[C@H](CC(=O)O)NC2=O (stereo partly drawn) [I-707, Ac-PL3-Asp-Cha-B5-Asp-TfeGA-Ala-Ala-Phe-Asn-S8-3Thi-BztA-Gln-NH2] | 0.046 | 0.046 | 48 (≈ 96.6 µg/mL) | 2.963 |  |
| CC(=O)N1CCC[C@]12CC=CCCCC1(CCCC=CCCCCCC[C@@](C)(C(=O)N[C@@H](Cc3ccsc3)C(=O)N[C@@H](Cc3csc4ccccc34)C(=O)N[C@@H](Cc3c[nH]cn3)C(N)=O)NC(=O)[C@H](CC(N)=O)NC(=O)[C@H](Cc3ccccc3)NC(=O)[C@H](C)NC(=O)[C@H](C)NC(=O)[C@H](CN(CC(=O)O)CC(F)(F)F)NC(=O)[C@H](CC(=O)O)NC1=O)NC(=O)[C@H](CC1CCCCC1)NC(=O)[C@H](CC(=O)O)NC2=O (stereo partly drawn) [I-709, Ac-PL3-Asp-Cha-B5-Asp-TfeGA-Ala-Ala-Phe-Asn-S8-3Thi-BztA-His-NH2] | 0.054 |  | 10 (≈ 20.2 µg/mL) |  | 3.11 |
| CC(=O)N1CCC[C@]12CC=CCCCC1(CCCC=CCCCCCC[C@@](C)(C(=O)N[C@@H](Cc3ccccc3)C(=O)N[C@@H](Cc3csc4ccccc34)C(N)=O)NC(=O)[C@H](CC(N)=O)NC(=O)[C@H](Cc3ccccc3)NC(=O)[C@H](C)NC(=O)[C@H](C)NC(=O)[C@H](CCC(=O)O)NC(=O)[C@H](CC(=O)O)NC1=O)NC(=O)[C@H](CC(C)(C)C)NC(=O)[C@H](CC(=O)O)NC2=O (stereo partly drawn) [I-712, Ac-PL3-Asp-Npg-B5-Asp-Glu-Ala-Ala-Phe-Asn-S8-Phe-BztA-NH2] | 0.092 | 0.092 | 42 (≈ 73.7 µg/mL) | 2.778 |  |

Results, then the compound that gave them:

| IC50 [1, 2] [µM] | IC50 ([1]; read-out: FP EC50) [µM] | Solubility (Solubility in PBS) [µM] | CHI Log D (CHI Log D procedure) | chromatographic logD (CHI Log D procedure; pH 7.4, CHI Log D) | Compound |
| --- | --- | --- | --- | --- | --- |
| 0.073 | 0.073 | 45 (≈ 86.4 µg/mL) | 2.143 |  | CC[C@H](C)[C@@H]1NC(=O)[C@H](CC(=O)O)NC(=O)[C@]2(CC=CCCCC3(CCCC=CCCCCCC[C@@](C)(C(=O)N[C@@H](Cc4ccccc4)C(=O)N[C@@H](Cc4csc5ccccc45)C(=O)N[C@@H](CCC(N)=O)C(N)=O)NC(=O)[C@H](CCC(N)=O)NC(=O)[C@H](Cc4ccccc4)NC(=O)[C@H](C)NC(=O)[C@H](C)NC(=O)[C@H](CCC(=O)O)NC(=O)[C@H](CC(=O)O)NC3=O)NC1=O)CCCN2S(C)(=O)=O (stereo partly drawn) [I-710, MeSO2-PL3-Asp-Ile-B5-Asp-Glu-Ala-Ala-Phe-Gln-S8-Phe-BztA-Gln-NH2] |
| 0.088 | 0.088 | 48 (≈ 92.1 µg/mL) | 2.132 |  | CC[C@H](C)[C@@H]1NC(=O)[C@H](CC(=O)O)NC(=O)[C@]2(CC=CCCCC3(CCCC=CCCCCCC[C@@](C)(C(=O)N[C@@H](Cc4ccccc4)C(=O)N[C@@H](Cc4csc5ccccc45)C(=O)N[C@@H](CCC(N)=O)C(N)=O)NC(=O)[C@H](CCC(N)=O)NC(=O)[C@H](Cc4ccccc4)NC(=O)[C@H](C)NC(=O)[C@H](C)NC(=O)[C@H](CCC(=O)O)NC(=O)[C@H](CC(=O)O)NC3=O)NC1=O)CCCN2S(C)(=O)=O (stereo partly drawn) [I-711, MeSO2-PL3-Asp-Ile-B5-Asp-Glu-Ala-Ala-Phe-Gln-S8-Phe-BztA-Gln-NH2] |
| 0.07 | 0.07 | 48 (≈ 84.2 µg/mL) | 2.851 |  | CC(=O)N1CCC[C@]12CC=CCCCC1(CCCC=CCCCCCC[C@@](C)(C(=O)N[C@@H](Cc3ccccc3)C(=O)N[C@@H](Cc3csc4ccccc34)C(N)=O)NC(=O)[C@H](CC(N)=O)NC(=O)[C@H](Cc3ccccc3)NC(=O)[C@H](C)NC(=O)[C@H](C)NC(=O)[C@H](CCC(=O)O)NC(=O)[C@H](CC(=O)O)NC1=O)NC(=O)[C@H](CC(C)(C)C)NC(=O)[C@H](CC(=O)O)NC2=O (stereo partly drawn) [I-713, Ac-PL3-Asp-Npg-B5-Asp-Glu-Ala-Ala-Phe-Asn-S8-Phe-BztA-NH2] |
